In US8409550B2, “Method for treating skin with retinoids and retinoid boosters” (Unilever Home & Personal Care, USA, Division of Conopco, …, priority 2000, dated 2013):
Several values for one entry are separate records, joined by “and”; a condition that tells them apart may be missing. Equal values may be shown once. Blank lines part the entries; values can stand above or below the substance they belong to.

Tests used:
Retinol Dehydrogenase = assay: Assay for retinol dehydrogenase activity, rat liver microsomes (to identify B2); format: biochemical; conditions: test compound final 100 μM
Procedure: 2.2 Isolation of Rat Liver Microsomes (4)
The resulting homogenate was successively centrifuged for 30 min. at 10,000 g, 30 min. at 20,000 g, and 15 min. at 30,000 g, and the resulting supernatant was ultra-centrifuged for 80 min. at 105,000 g. […] Protein concentrations were determined as described above.
2.4 Assay for Retinol Dehydrogenase Activity (to Identify B2)
The following stock solutions were prepared:
50 mM KH2PO4, pH 7.4 buffer, sterile filtered.
10 mM all trans Retinol (Sigma 87632) in DMSO.
200 mM Nicotinamide adenine dinucleotide phosphate, sodium salt (NADP) (Sigma N0505) in sterile water.
40 mM test compound in appropriate solvent (water, buffer, ethanol, chloroform or DMSO).
1:10 dilution of rat liver Microsomes in 50 mM KH2PO4, pH 7.4 buffer (4 μg/μl).
In a two-dram glass vial with screw cap, the following were added in order:
Buffer to give a final volume of 400 μl
25 μl diluted Microsomes (final=100 μg)—boiled Microsomes were used for controls and regular Microsomes for test samples.
4 μl of 200 mM NADP (final=2 mM)
1 μl of 40 mM test compound (final=100 μM)
8 μl of 10 mM retinol (final=200 μM)
The vials were incubated in a 37° C. shaking water bath for 45 minutes. 500 μl ice-cold ethanol was added to each vial to quench the reaction. The retinoids were extracted twice with ice cold hexane (2.7 ml per extraction). […]

[1] = tested on: transglutaminase (TGase I); assay: Transglutaminase (Tgase) ELISA assay in cultured keratinocytes with retinol and boosters; format: cell-based, human; conditions: for TG as % C Compd 1 / TG as % C Compd 2 / TG as % C, Compd 3: concentration one log below IC20; for TG as % C, Compd 3: Compound 3 alone; for Tgase levels (Mean): with 10^-7 M retinol
[2] = in the presence of 10^-7M retinol

Substance: Phosphatidyl Choline
% Increase Retinol Dehydrogenase (Retinol Dehydrogenase): 21% increase
TG as % C Compd 1 ([1]; Compound 1 alone, in the presence of 10^-7M retinol): 88 % C
TG as % C Compd 2 ([1]; Compound 2 alone, in the presence of 10^-7M retinol): 88 % C
TG as % C, Compd 3 [1, 2]: 88 % C
Tgase levels (Mean) ([1]; booster 1.2E−08 Molar): 159 % of control
Tgase levels (Mean) ([1]; booster 1.47E−05 Molar): 120.3 % of control
Tgase levels (Mean) ([1]; booster 1.63E−06 Molar): 98.8 % of control
Tgase levels (Mean) ([1]; booster 1.8E−07 Molar): 75.9 % of control
Tgase levels (Mean) ([1]; booster 2.4E−09 Molar): 85.5 % of control
Tgase levels (Mean) ([1]; booster 4.4E−05 Molar): 90.9 % of control
Tgase levels (Mean) ([1]; booster 4.89E−06 Molar): 70.1 % of control
Tgase levels (Mean) ([1]; booster 5.43E−07 Molar): 86.7 % of control
Tgase levels (Mean) ([1]; booster 6.0E−08 Molar): 87.8 % of control
TG as % C Compd 1 ([1]; compound 1 alone, with retinol): 98 % C
TG as % C Compd 2 ([1]; compound 2 alone, with retinol, listed as Phospahtidylcholine): 97 % C
TG as % C Compd 2 ([1]; compound 2 alone, with retinol, listed as Phosphatidyl choline): 98 % C
TG as % C Compd 2 ([1]; compound 2 alone, with retinol, listed as Phosphatidylcholine): 97 % C

% Increase Retinol Dehydrogenase (Retinol Dehydrogenase): 26% increase
TG as % C, Compd 3 [1, 2]: 60 % C
Tgase levels (Mean) ([1]; booster 1.0E−05 Molar): 77.8 % of control
Tgase levels (Mean) ([1]; booster 1.1E−06 Molar): 98.8 % of control
Tgase levels (Mean) ([1]; booster 1.23E−07 Molar): 70.0 % of control
Tgase levels (Mean) ([1]; booster 1.65E−09 Molar): 68.4 % of control
Tgase levels (Mean) ([1]; booster 3.0E−05 Molar): 45 % of control
Tgase levels (Mean) ([1]; booster 3.29E−10 Molar): 69.2 % of control
Tgase levels (Mean) ([1]; booster 3.33E−06 Molar): 76.4 % of control
Tgase levels (Mean) ([1]; booster 3.73E−07 Molar): 91.6 % of control
Tgase levels (Mean) ([1]; booster 4.10E−08 Molar): 74.6 % of control
Tgase levels (Mean) ([1]; booster 8.2E−08 Molar): 115.2 % of control
TG as % C Compd 2 ([1]; compound 2 alone, with retinol): 84 % C and 98 % C
Substance: Sphingomyelin
